Measurements published in patent US10167326B2, “Alpha-fetoprotein “ring and tail” peptides” (ALBANY MEDICAL COLLEGE, priority 2010, dated 2019).
Non-standard residues stand in square brackets, D forms with d. Residues, ends and D or L forms follow the SMILES beside them. Groups on a side chain read outwards from the residue. No end group written: not given here. Hyp = O=C(O)[C@@H]1C[C@@H](O)CN1

Key:
[1] = test system: E2-stimulated immature mouse uterine growth; test: immature mouse uterine growth assay (inhibition of E2-stimulated uterine growth); assay type: in vivo; details: for Inhibition ± S.E, % Mouse uterine growth Intraperitoneal: 1 μg/mouse intraperitoneally, E2-stimulated, mean±S.E. (n=5), * p<0.05 vs E2 alone; for inhibition of E2-stimulated uterine growth, dose response profile: over a number of doses (FIG. 6)
Procedure: Four cyclic peptides of decreasing ring size (Table 1) were synthesized and were assessed for antiestrogenic activity using the immature mouse uterine assay. Negative control mice received saline alone. Positive control mice received E2 alone. AFPep was used as a positive control peptide and cyclic Scr was used as a peptide control. Mice were injected intraperitoneally (i.p.) with each of these peptides at a dose of 1 μg/mouse. One hour later mice received 0.5 ug 17β-estradiol (E2) i.p. Twenty-two hours later uteri were dissected, weighed, and normalized to body weight. The results are reported as mean±S.E (n=5) for four independent experiments.
(§1) A ‘tail’ was attached to a nine-amino acid ring and included 1 or 2 amino acids defined as hydrophilic or hydrophobic based on the nature of their side-chains. Tails comprising the following amino acid(s): serine (S), tyrosine (Y), […], glutamic acid (E), phenylalanine-serine (FS) and tyrosine-isoleucine (YI) represent hydrophilic tails and tails comprising the following amino acid(s), phenylalanine (F), isoleucine (I) and phenylalanine-isoleucine (FI) are hydrophobic tails. All peptides were administered at a dose of 1 μg/mouse intraperitoneally or 10 μg/mouse by oral gavage. Values are presented as mean±S.E. (n=5). In culture, T47D cells were treated with each peptide at a concentration of 1 μM. Values are presented as mean±S.E (n=6). […] Wilcoxon Rank Sum Test.
(§2) All peptides were administered at a dose of 1 μg/mouse intraperitoneally or 10 μg/mouse by oral gavage. Values are presented as mean±S.E (n=5). In culture, T47D cells were treated with each peptide at a concentration of 1 μM. Values are presented as mean±S.E (n=6). […] Wilcoxon Rank Sum Test.
To evaluate peptide-induced inhibition by the peptide of the present invention of estrogen-stimulated proliferation of normal tissue, the immature mouse uterine growth assay was utilized. Briefly, 13-15 day-old Swiss/Webster female mice, 6-8 g in body weight, were distributed into treatment groups of 5 mice per group so that each group contained animals of the same range of body weight. The peptide of the invention was injected i.p., s.c., or p.o. into the mice. One hour later, estradiol (E2) or vehicle control for E2 was injected i.p. Twenty-two hours after the second injection, uteri were harvested, trimmed free of mesenteries, and immediately weighed. The uterine weights were normalized to mouse body weights to compensate for differences in body weight among litters of the same age. Experiments employed a minimum of five mice per group and the mean normalized uterine weight±SE for each group was calculated. Percent growth inhibition in a test group was calculated from normalized uterine wet weights as described below.
The ability to inhibit E2-stimulated growth of normal mouse uterus was used as a screening assay for biological activity of AFPep analogs. In general, inhibitory activity ≥20% is considered to be biologically significant. Each analog's inhibitory effect on E2-stimulated growth was compared to AFPep (a positive control) and to PGVGQ (SEQ ID NO: 51)(a negative control). PGVGQ (SEQ ID NO: 51 amino acids 478-482 of AFP) is a portion of the primary structure of AFP near to the anti-cancer active site of AFP and is comprised of amino acids (P, V, and G) that are important components of AFPep.

[2] = test system: Estrogen independent (ER−) MDA MB231 cells; test: MDA MB231 cell growth (MTT assay); assay type: cell-based, human; details: 10^−6M, 7 days, MTT (FIG. 9)
Procedure: Estrogen independent (ER^−)MDA MB231 cells were plated at 20,000 cells/well/ml in a collagen-IV coated 24-well plate. The next day, cells were treated with vehicle (0.1% ethanol), AFPep, cyclo[EKTOVNOGN] (SEQ ID NO: 33) YI, for 7 days. Each peptide was treated at 10^−6M. Cell proliferation was determined by MTT assay. Each value is the mean±S.E. (n=4) of three independent experiments.

[3] = test system: T47D human breast cancer cells; test: T47D cell proliferation assay in the presence of E2; assay type: cell-based; details: peptide 1 μM; E2-stimulated; mean±S.E (n=6); * p<0.05 vs E2 alone
Procedure: Anticancer activity of the cyclic peptides was also evaluated using the T47D cell proliferation assay. T47D cells were cultured on collagen-IV coated 24-well plates and treated with each of above peptides in the presence of E2. Final peptide concentrations of each peptide were 10^−6 M and final E2 concentration was 1 nM. Values are reported as mean±SEM (n=6) of four independent experiments. […] One-way ANOVA followed by Tukey's multiple comparison test. p≤0.05.
as §1, §2

[4] = test system: MCF-7 human breast cancer xenograft; test: E2-supplemented MCF-7 human breast cancer xenograft assay in SCID mice; assay type: in vivo, mouse; details: E2 pellets, 10 μg s.c., 10 μg i.p. or 100 μg p.o. once daily day 1 to day 20 (FIG. 8)
Source text: To determine the effectiveness of cyclo[EKTOVNOGN] (SEQ ID NO: 33)FI as a potential cancer therapeutic agent in a clinically relevant model, we assessed the effect of cyclo[EKTOVNOGN] (SEQ ID NO: 33)FI on E2-supplemented MCF-7 human breast cancer xenograft growth using different routes of administration. Briefly, a piece of MCF-7 human breast cancer measuring approximately 2 mm in average diameter was implanted under the kidney capsule of SCID mice. Mice were supplemented with E2 pellets implanted subcutaneously, at the time of tumor implantation, for a steady state of E2 at 10^−9M. Mice were treated with 10 μg subcutaneously (s.c.), 10 μg intraperitoneally (i.p.) or 100 μg orally (p.o.) cyclo [EKTOVNOGN] (SEQ ID NO: 33) FI was administered once daily from day 1 to day 20 of the experiment. Tumor size was measured as described in materials and methods. Data is presented as mean±S.E (n=5). After 20 days of treatment, the percentage change in tumor volume for each cyclo [EKTOVNOGN] […] One-way ANOVA followed by Tukey's multiple comparison test. *p<0.01 vs. E2.
The peptides of the invention were evaluated for their ability to inhibit tumor growth in a human tumor xenograft assay. Briefly, MCF-7 human breast cancer cells were obtained from ATCC® (Rockville, Md.) and were grown in DMEM supplemented with 5% FCS, 1% non-essential amino acids, 10 ng/ml insulin, 2 mM L-glutamine, 100 units/ml penicillin, and 100 μg/ml streptomycin. MCF-7 cells from culture were solidified into a fibrin clot. The tumor-containing clots were cut into pieces about 1.5 mm in diameter and implanted under the kidney capsule of severe combined immunodeficient (ICR-SCID) mice (Taconic Farms, Germantown, N.Y.) as described in Bennett et al. (Clin. Cancer Res. 1998; 4:2877-84).
Estrogen supplementation of mice was required for the growth of MCF-7 tumors. […] Tumor size was evaluated during survival laparotomy using a dissecting microscope at the time of tumor implantation and at days 15 and 30 after tumor implantation. […]

[5] = test system: T47D human breast cancer cells; test: T47D cell proliferation assay in the presence of E2; assay type: cell-based; details: different concentrations in vitro (FIG. 7)

| Molecule | Inhibition ± S.E, % T47D cell proliferation [3] | inhibition of E2-stimulated T47D human breast cancer cell growth, concentration response profile [5] | inhibition of E2-stimulated uterine growth, dose response profile [1] | also measured |
| --- | --- | --- | --- | --- |
| cyclo[EKTOVNOGN]FS | – | – | – | Inhibition ± S.E, % Mouse uterine growth Intraperitoneal [1]: 7 ± 3% |
| CC[C@H](C)[C@H](NC(=O)[C@H](Cc1ccccc1)NC(=O)C[C@@H]1NC(=O)CNC(=O)[C@@H]2C[C@@H](O)CN2C(=O)[C@H](CC(N)=O)NC(=O)[C@H](C(C)C)NC(=O)[C@@H]2C[C@@H](O)CN2C(=O)[C@H]([C@@H](C)O)NC(=O)[C@H](CCCCN)NC(=O)[C@H](CCC(=O)O)NC1=O)C(N)=O [cyclo[EKTOVNOGN]FI] (cyclo(EKT[Hyp]VN[Hyp]GD([Phe-Ile-NH2]))) | 66 ± 2* % | inhibited E2-stimulated T47D human breast cancer cell growth in a concentration-dependent manner, even at high concentrations | significantly inhibited E2-stimulated growth in a dose-dependent manner and maintained its effectiveness at very high doses | effect on growth of ER− MDA MB 231 cells in culture [2]: no effect; inhibition of MCF-7 xenograft growth (change in tumor volume) [4]: significantly different from the E2 alone group; inhibition of MCF-7 xenograft growth (change in tumor volume) ([4]; listed as cyclo [ETKOVNOGN] FI): significantly inhibited the growth of tumor xenografts; efficacy in inhibition of E2-stimulated growth compared with AFPep ([1]; in vivo and in vitro, summary statements): more effective at inhibiting E2-stimulated growth than AFPep |
| cyclo[EKTOVGOGN]K (EKT[Hyp]VG[Hyp]GNK; bridge (positions not given here); not fully specified (bridges); printed as cyclo[EKTOVGOGN]K; also: cyclic ring with lysine tail, ring closure and tail attachment not given here) | – | – | – | Inhibition ± S.E, % Mouse uterine growth Intraperitoneal [1]: 7 ± 3% |
| TOVNOGNEK (T[Hyp]VN[Hyp]GNEK) | – | superior dose response profile | superior dose response profile | inhibition of MCF-7 xenograft growth (change in tumor volume) [4]: efficacy equivalent to AFPep |
| CC[C@H](C)[C@H](NC(=O)[C@H](Cc1ccc(O)cc1)NC(=O)C[C@@H]1NC(=O)CNC(=O)[C@@H]2C[C@@H](O)CN2C(=O)[C@H](CC(N)=O)NC(=O)[C@H](C(C)C)NC(=O)[C@@H]2C[C@@H](O)CN2C(=O)[C@H]([C@@H](C)O)NC(=O)[C@H](CCCCN)NC(=O)[C@H](CCC(=O)O)NC1=O)C(N)=O [cyclo[EKTOVNOGN]YI] (cyclo(EKT[Hyp]VN[Hyp]GD([Tyr-Ile-NH2]))) | 24 ± 3% | ineffective | very little antiestrogenic activity | – |
| CC[C@H](C)[C@H](NC(=O)C[C@@H]1NC(=O)CNC(=O)[C@@H]2C[C@@H](O)CN2C(=O)[C@H](CC(N)=O)NC(=O)[C@H](C(C)C)NC(=O)[C@@H]2C[C@@H](O)CN2C(=O)[C@H]([C@@H](C)O)NC(=O)[C@H](CCCCN)NC(=O)[C@H](CCC(=O)O)NC1=O)C(N)=O [cyclo[EKTOVNOGN]I] (cyclo(EKT[Hyp]VN[Hyp]GD([Ile-NH2]))) | 55 ± 6* % | – | – | – |
| TOVNO (T[Hyp]VN[Hyp]) | – | undesirable | undesirable | – |
